Literature values as cited in patent US4196122A, “Analgesic polypeptide” (American Home Products Corporation, priority 1977, dated 1980).

Experiments:
rats = conditions: injection in the brain ventricle in rats; fully reversible by naloxone
opiate receptor = conditions: brain homogenates

Substance	analgesia (rats)	inhibition of stereospecific receptor binding of 3H-naloxone (opiate receptor)
H-Tyr-Gly-Gly-Phe-Leu-OH [leucine-enkephalin]	induce a profound analgesia	inhibit the stereospecific receptor binding
H-Tyr-Gly-Gly-Phe-Met-OH [methionine-enkephalin]	induce a profound analgesia	inhibit the stereospecific receptor binding
